{"source": "patent US20240150286A1", "about": "“PEROXISOME PROLIFERATOR-ACTIVATED RECEPTOR GAMMA (PPARy) LIGANDS AND METHODS OF USE AS TREATMENTS FOR INSULIN RESISTANCE, OBESITY, FATTY LIVER DISEASE, AND TYPE 2 DIABETES” (The Board of Regents of the University of Oklahoma, priority 2022, published 2024)", "key": {"liver of DIO mice": {"system": "liver of DIO mice", "test": "Liver steatosis in DIO mice (H&E histology, qRT-PCR)", "format": "in vivo, mouse", "settings": "vs vehicle", "protocol": "C57BL/6J male mice were obtained from Jackson laboratory (Bar Harbor, ME) and maintained on a 12 h light (6:00 AM to 6:00 PM)—12 h dark (6:00 PM to 6:00 AM) cycle at an ambient temperature of 22±1° C. All animals had access to diet and water ad libitum. All procedures involving animals were approved by the Institutional Animal Care and Use Committee of the University of Oklahoma Health Science Center. All experiments were performed with age-matched male mice. The mice were fed a high-fat diet (HFD) (60% kcal fat, Bio-Serv, NJ, USA) starting from the age of 6 weeks until study end. […] Food intake was determined manually by measuring the amount of input food subtracting the amount of the food remaining in the food hopper and the crumbs on the bedding of the cage each day for three days during the 4th week of the treatment. Packed cell volume (PCV) was measured with blood drawn from tail on a LW Scientific E8 centrifuge (LW Scientific, Lawrenceville, Georgia, USA) microhematocrit centrifuge at the end of study. For all other measurements, the blood was drawn at the time of euthanization.\nLiver, heart, bone, adipose tissues were dissected and immediately fixed in 4% paraformaldehyde (Sigma-Aldrich), paraffin embedded, and stained with hematoxylin and eosin. For Immunofluorescence staining, the eWAT and iWAT paraffin sections were incubated with primary antibody (rabbit polyclonal to F4/80 [1:500, Cat #: 70076], Cell Signaling Technology) overnight at 4° C. after deparaffinization. […]\n(§1) Total RNA (2 μg) was isolated from tissues or cells using TRIzol reagents (Life Technologies) and reverse transcribed using oligo d(T) primers (New England Biosystems) and SuperScript IV reverse transcription kit (Applied Biosystems). qPCR was performed in a CFX96 Touch Real-Time PCR detection system using SYBR Green mix (Applied Biosystems). […] Relative mRNA expression was determined by the ΔΔCt method normalized to TBP mRNA. […]"}, "human PPARγ2": {"molecular_target": "T1, human PPARγ2 (Homo sapiens, UniProt P37231)", "T1 construct": "host or cells: HEK-293", "T1 sequence (P37231 1-505)": "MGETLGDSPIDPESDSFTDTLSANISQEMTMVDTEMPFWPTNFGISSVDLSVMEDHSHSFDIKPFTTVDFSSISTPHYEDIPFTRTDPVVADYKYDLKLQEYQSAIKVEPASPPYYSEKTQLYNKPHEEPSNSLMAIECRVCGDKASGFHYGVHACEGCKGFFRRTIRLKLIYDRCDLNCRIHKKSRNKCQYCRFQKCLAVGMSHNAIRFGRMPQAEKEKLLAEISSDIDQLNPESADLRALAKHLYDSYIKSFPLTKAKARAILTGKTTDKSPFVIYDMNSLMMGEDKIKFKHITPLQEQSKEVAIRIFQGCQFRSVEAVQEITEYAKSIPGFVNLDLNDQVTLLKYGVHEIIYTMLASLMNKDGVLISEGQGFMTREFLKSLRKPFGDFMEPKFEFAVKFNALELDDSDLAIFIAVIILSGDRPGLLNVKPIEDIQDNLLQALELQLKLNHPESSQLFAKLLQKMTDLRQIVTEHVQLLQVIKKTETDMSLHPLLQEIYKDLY", "test": "PPARγ transactivation reporter assay (3×PPRE-luc) in HEK-293 cells", "format": "cell-based", "protocol": "HEK-293 cells were seeded overnight, co-transfected with plasmids expressing human PPARγ2 and 3×PPRE-luc (both from Addgene) followed by incubation for 16 h, and then re-seeded in a 384-well plate and incubated for 24 h. Compounds were added and then incubated another 24 h. Luciferase activity was analyzed in each well using Bright-Glo Luciferase kit (Promega)."}, "[1]": {"system": "primary preadipocytes isolated from iWAT and eWAT", "test": "Browning gene expression in differentiated primary preadipocytes", "format": "cell-based, mouse", "settings": "differentiated with WO95E vs DMSO", "protocol": "(§2) 3T3-L1 preadipocytes were differentiated. In brief, cells at around 60%-70% confluence were induced for differentiation with DMEM containing 10% FBS, 1 μg/ml insulin, 1 μM dexamethasone, and 0.5 mM IBMX for 48 h in the presence or absence of compounds and were then exposed in maintenance medium (1 μg/mL insulin in 10% FBS/DMEM) containing compounds. The medium was renewed every 2 days for total 8 days of differentiation when the cells became differentiated and lipid droplets were apparent. For primary preadipocyte differentiation, isolation of primary preadipocytes was performed. Briefly, fat depots were digested in PBS containing collagenase D (1.5 U/ml) at 37° C. for 40-45 min. The primary cells were filtered through 70 μm cell strainer and centrifuge at 700 g to collect stromal vascular fraction (SVF). The SVF cell pellets were plated on collagen coated plates. […]\nas §1"}, "3T3-L1 cells": {"system": "3T3-L1 cells", "test": "3T3-L1 adipocyte differentiation (Oil Red O staining, adipogenic gene mRNA)", "format": "cell-based, mouse", "protocol": "as §2, §1"}}}
{"molecule": "Cc1c(C)n(Cc2ccc(-c3ccccc3C(=O)O)cc2)c2ccc(C(=O)NCc3cccc(O)c3)cc12", "note": "[WO95E, 4′-((5-((3-hydroxybenzyl)carbamoyl)-2,3-dimethyl-1H-indol-1-yl)methyl)-[1,1′-biphenyl]-2-carboxylic acid]", "values": [{"measurement": "number of lipid droplets in the liver", "setting": "liver of DIO mice; H&E", "value": "markedly reduced"}, {"measurement": "expression levels of PEPCK and G6PC in liver", "setting": "liver of DIO mice", "value": "significantly decreased"}, {"measurement": "lipogenic genes FASN, SCD-1, ACC in liver", "setting": "liver of DIO mice", "value": "down-regulated"}, {"measurement": "PPARγ transactivation reporter activation (in words)", "setting": "human PPARγ2; HEK293, PPARγ2 + 3×PPRE-luc", "value": "increased the reporter activity only weakly"}, {"measurement": "3×PPRE-luc reporter activity as % of potency of Rosi", "setting": "human PPARγ2; HEK293, PPARγ2 + 3×PPRE-luc, relative to Rosi", "value": "~15", "unit": "%"}, {"measurement": "3×PPRE-luc reporter activity as % of potency of UHC1", "setting": "human PPARγ2; HEK293, PPARγ2 + 3×PPRE-luc, relative to UHC1", "value": "~33", "unit": "%"}, {"measurement": "3×PPRE reporter activation with GW9662 co-treatment", "setting": "human PPARγ2; compound 10 μM, GW9662 5 μM, HEK293", "value": "retained its moderate ability to activate the reporter"}, {"measurement": "expression levels of Prdm16, UCP1, PCG1α, Ppara in iWAT adipocytes", "setting": "[1]", "value": "significantly increased"}, {"measurement": "mRNA levels of adipogenic genes PPARγ, FABP4, Glut4, PEPCK, C/EBPa", "setting": "3T3-L1 cells; 3T3-L1, compounds at 10 μM, qRT-PCR", "value": "only minimally or moderately increased"}, {"measurement": "Oil Red O staining / adipocyte differentiation", "setting": "3T3-L1 cells; 3T3-L1, differentiation media, compounds at 10 μM", "value": "only marginally increased Oil Red O staining level"}]}
